{
  "source": "EPA's ToxValDB 9.5 (doi:10.2903/j.efsa.2010.1632)",
  "key": {"[1]": {"tested_on": "Anas platyrhynchos"}, "[2]": {"tested_on": "Apis mellifera", "conditions": "acute; duration: 48 hours; dermal; mortality"}, "[3]": {"tested_on": "Bibionidae", "conditions": "chronic/long-term; duration: 28 days; development"}, "[4]": {"tested_on": "Canidae", "conditions": "oral, Dog Other, body weight"}, "[5]": {"tested_on": "Colinus virginianus"}, "[6]": {"tested_on": "Cyprinodon variegatus", "conditions": "acute; duration: 96 hours; mortality"}, "[7]": {"tested_on": "Daphnia magna", "conditions": "chronic/long-term; duration: 21 days; reproduction"}, "[8]": {"tested_on": "Folsomia candida", "conditions": "chronic/long-term; duration: 28 days; reproduction"}, "[9]": {"tested_on": "Lycopersicon sp.", "conditions": "not reported; seedling emergence"}, "[10]": {"tested_on": "Mus musculus", "conditions": "chronic; duration: 78 weeks; body weight"}, "[11]": {"tested_on": "Neomysis kadiakensis", "conditions": "chronic/long-term; duration: 35 days; reproduction"}, "[12]": {"tested_on": "Oncorhynchus mykiss", "conditions": "acute; duration: 96 hours; mortality"}, "[13]": {"tested_on": "Oryctolagus sp.", "conditions": "reproduction developmental; body weight"}, "[14]": {"tested_on": "Pimephales promelas", "conditions": "chronic/long-term; duration: 301 days; other"}, "[15]": {"tested_on": "Rattus norvegicus", "conditions": "body weight"}, "[16]": {"tested_on": "Tagia sp."}, "[17]": {"tested_on": "Aphidius rhopalosiphi", "test": "LR50; higher = less toxic", "conditions": "acute; duration: 48 hours; mortality"}},
  "data": [
    {"smiles": "CC(C)(C)c1ccc(CSc2cnn(C(C)(C)C)c(=O)c2Cl)cc1", "note": "[Pyridaben]", "values": [
      {"measurement": "LD50", "setting": "[1]; acute, oral, unspecified, mortality", "result": "> 2500", "unit": "mg/kg-day"},
      {"measurement": "NOEC", "setting": "[1]; reproductive", "result": 10, "unit": "mg/kg-day"},
      {"measurement": "NOEC", "setting": "[1]; short-term, oral, feed, mortality", "result": 659, "unit": "mg/kg-day"},
      {"measurement": "LD50", "setting": "[2]", "result": "> 0.024", "unit": "µg/piece"},
      {"measurement": "NOEC", "setting": "[3]", "result": 0.0051, "unit": "mg/L"},
      {"measurement": "NOAEL", "setting": "[4]; chronic, duration: 1 years", "result": 1, "unit": "mg/kg-day"},
      {"measurement": "NOAEL", "setting": "[4]; subchronic, duration: 3 months", "result": 1, "unit": "mg/kg-day"},
      {"measurement": "LC50", "setting": "[5]; acute, oral, diet, mortality", "result": "> 4300", "unit": "mg/kg-day"},
      {"measurement": "LD50", "setting": "[5]; acute, oral, mortality", "result": "> 2250", "unit": "mg/kg-day"},
      {"measurement": "NOEC", "setting": "[5]; reproduction developmental", "result": 130, "unit": "mg/kg-day"},
      {"measurement": "LC50", "setting": "[6]", "result": 17, "unit": "ng/mL"},
      {"measurement": "NOEC", "setting": "[7]", "result": "8.6e-05", "unit": "mg/L"},
      {"measurement": "NOEC", "setting": "[8]", "result": 3.28, "unit": "mg/kg"},
      {"measurement": "LEL", "setting": "[9]", "result": 560, "unit": "g/ha"},
      {"measurement": "NOAEL", "setting": "[10]", "result": 0.81, "unit": "mg/kg-day"},
      {"measurement": "NOEC", "setting": "[11]", "result": "4.7e-05", "unit": "mg/L"},
      {"measurement": "LC50", "setting": "[12]", "result": 0.73, "unit": "ng/mL"},
      {"measurement": "NOAEL", "setting": "[13]", "result": 5, "unit": "mg/kg-day"},
      {"measurement": "NOEC", "setting": "[14]", "result": 0.00028, "unit": "mg/L"},
      {"measurement": "NOEC", "setting": "[15]; chronic", "result": 2.37, "unit": "mg/kg-day"},
      {"measurement": "NOAEL", "setting": "[15]; chronic, duration: 2 years", "result": 1.1, "unit": "mg/kg-day"},
      {"measurement": "NOAEL", "setting": "[15]; reproduction developmental", "result": 4.7, "unit": "mg/kg-day"},
      {"measurement": "LC50", "setting": "[16]; acute, duration: 14 days, mortality", "result": "> 38", "unit": "mg/kg"},
      {"measurement": "NOEC", "setting": "[16]; chronic/long-term, duration: 56 days, reproduction", "result": 0.29, "unit": "mg/kg"},
      {"measurement": "LR50", "setting": "[17]", "result": 0.24, "unit": "g/ha"}
    ]}
  ]
}
